We go through 14 compounds from patent US6335451B1, “Five-membered heterocycles having biphenylsulfonyl substitution, with sulfonylcyanamide side chain, compositions containing them, and methods of using them” (Hoechst Aktiengesellschaft, priority 1997, dated 2002).

The test system of series [1] is Na+-dependent Cl−/HCO3− exchanger (NCBE). Description: Inhibition of the Na+-dependent Cl−/HCO3− exchanger (NCBE) in human endothelial cells (pHi recovery, BCECF fluorescence, FLIPR). It is filed as cell-based. The following applies: inhibitor concentration of 10 μM; human endothelial cells (ECV-304); relative to 100% and 0% pHi recovery controls, 50 μM HOE 642 present. How it is done: Inhibition of the Na^+-dependent Cl^−/HCO3^− exchanger (NCBE) in human endothelial cells
Human endothelial cells (ECV-304) were detached from culture bottles with the aid of trypsin/EDTA buffer (0.05/0.02% in phosphate buffer) and, after centrifugation (100 g, 5 min), taken up in a buffered salt solution (mmol/l: 115 NaCl, 20 NH4Cl, 5 KCl, 1 CaCl2, 1 MgSO4, 20 N-(2-hydroxyethyl)piperazine-N′-2-ethanesulfonic acid (HEPES), 5 glucose and 1 g/l of bovine serum albumin; pH 7.4). This cell suspension was incubated at 37° C. for 20 min with 5 μM BCECF-acetoxymethyl ester. The cells were then washed and resuspended in a sodium- and bicarbonate-free buffer solution (mmol/l: 5 HEPES, 133.8 choline chloride, 4.7 KCl, 1.25 MgCl2, 0.97 K2HPO4, 0.23 KH2PO4, 5 glucose; pH 7.4).
For subsequent fluorescence measurement in an FLIPR (Fluorescent Imaging Plate Reader) 100 μl of this cell suspension having 20,000 cells in each case were pipetted per well into a 96-well microtiter plate and this microtiter plate was centrifuged (100 g, 5 min).
In the FLIPR, 100 μl of buffer solution in each case were then removed from a further pretreated microtiter plate and pipetted into each of the 96 wells of the measurement plate. A bicarbonate- and sodium-containing buffer solution (mmol/l: 5 HEPES, 93.8 NaCl, 40 NaHCO3, 4.7 KCl, 1.25 CaCl2, 1.25 MgCl2, 0.97 Na2HPO4, 0.23 NaH2PO4, 5 glucose; pH 7.4) which contained 50 μM HOE 642 was used for a 100% control, i.e. a recovery of the intracellular pH (pHi) via the NCBE. For a 0% control, i.e. no pHi recovery at all, the bicarbonate-free, sodium-containing buffer solution (mmol/l: 5 HEPES, 133.8 NaCl, 4.7 KCl, 1.25 CaCl2, 1.25 MgCl2, 0.97 Na2HPO4, 0.23 NaH2PO4, 5 glucose; pH 7.4) was employed, to which 50 μM HOE 642 were likewise added. The compounds according to the invention were added to the sodium- and bicarbonate-containing solution in various concentrations.
After addition of the buffer solutions to the dye-loaded, acidified cells in the measurement plate, the rise in the fluorescence intensity which corresponded to a rise in the pHi in each well of the microtiter plate was determined. The kinetics were in this case recorded at 35° C. for a period of 2 minutes.
The increase in the fluorescence intensities for different concentrations of the compounds according to the invention was related to the two controls and from this inhibitory action of the substances was determined.
Residual Activity of the NCBE at an Inhibitor Concentration of 10 μM

Usually melting point stands for the temperature of the solid-liquid transition. Regarding `CCCCc1nc(Cl)c(C=O)n1Cc1ccc(-c2ccccc2S(=O)(=O)NC#N)cc1` [Example 15, 4′-(2-Butyl-4-chloro-5-formylimidazol-1-ylmethyl)biphenyl-2-sulfonylcyanamide], the melting point was 135 °C (dec.). In addition, the “Residual activity in % (residual activity of the NCBE)” value (from here on “Residual activity in %”) in series [1] is listed as 55.7%.
For the compound `CCCc1nc(SC)c(C(=O)OCC)n1Cc1ccc(-c2ccccc2S(=O)(=O)NC#N)cc1` [Example 16], the melting point is 165 °C (dec.). In series [1], the “Residual activity in %” value is given as 11.5%.
For the compound `CCOC(=O)c1c(SC)nc(CC)n1Cc1ccc(-c2ccccc2S(=O)(=O)NC#N)cc1` [Example 17, Ethyl 2-ethyl-5-methylsulfanyl-3-(2′-cyanoaminosulfonylbiphenyl-4-ylmethyl)-3H-imidazole-4-carboxylate], the melting point was 94 °C (dec.). For the same compound, the “Residual activity in %” value in series [1] is on record as 39.1%.
As to `CCOC(=O)c1c(SC)nc(C)n1Cc1ccc(-c2ccccc2S(=O)(=O)NC#N)cc1` [Example 18, Ethyl 2-methyl-5-methylsulfanyl-3-(2′-cyanoaminosulfonylbiphenyl-4-ylmethyl)-3H-imidazole-4-carboxylate], the melting point is 169 °C (dec.). Further, in series [1], the “Residual activity in %” value turned out to be 45.8%.
`CCOC(=O)c1c(SC)nc(C(C)C)n1Cc1ccc(-c2ccccc2S(=O)(=O)NC#N)cc1` [Example 19, Ethyl 2-isopropyl-5-methylsulfanyl-3-(2′-cyanoaminosulfonylbiphenyl-4-ylmethyl)-3H-imidazole-4-carboxylate]: the melting point was 276 °C (dec.). For the same compound, the “Residual activity in %” value in series [1] is 21.5%.
The like results for `CCCCc1nc(SC)c(C(=O)OC(C)C)n1Cc1ccc(-c2ccccc2S(=O)(=O)NC#N)cc1` [Example 20, Isopropyl 2-butyl-5-methylsulfanyl-3-(2′-cyanoaminosulfonylbiphenyl-4-ylmethyl)-3H-imidazole-4-carboxylate] were, in that order, 113 °C (dec.) and 19.5%.
As to `CCCCc1nc(SC)c(C(=O)OCC)n1Cc1ccc(-c2cc(S(=O)(=O)NC#N)ccc2C)cc1` [Example 21, Ethyl 2-butyl-3-(2′-methyl-5′-cyanoaminosulfonylbiphenyl-4-yl-methyl)-5-methylsulfanyl-3H-imidazole-4-carboxylate], the melting point is 127 °C (dec.). Further, the “Residual activity in %” value in series [1] worked out at 42.6%.
For `CCCCc1nc(SC)c(C(=O)OCC)n1Cc1ccc(-c2ccc(S(=O)(=O)NC#N)cc2C)cc1` [Example 22, Ethyl 2-butyl-3-(2′-methyl-4′-cyanoaminosulfonylbiphenyl-4-yl-methyl)-5-methylsulfanyl-3H-imidazole-4-carboxylate], in that order: 211 °C and 34.2%.
The like results for `CCCCc1nc(SC)c(C(=O)OCC)n1Cc1cccc(-c2cc(S(=O)(=O)NC#N)ccc2C)c1` [Example 24, Ethyl 2-butyl-3-(2′-methyl-5′-cyanoaminosulfonylbiphenyl-3-yl-methyl)-5-methylsulfanyl-3H-imidazole-4-carboxylate] were, in that order, 160 °C (dec.) and 29.2%.
In the case of `CCCCc1nc(SC)c(C(=O)OCC)n1Cc1cccc(-c2ccc(S(=O)(=O)NC#N)cc2C)c1` [Example 25, Ethyl 2-butyl-3-(2′-methyl-4′-cyanoaminosulfonylbiphenyl-3-yl-methyl)-5-methylsulfanyl-3H-imidazole-4-carboxylate], the melting point is 115 °C (dec.). The “Residual activity in %” value in series [1] is on record as 70.8%.
Take `CCCCc1nc(SC)c(C(=O)OCC)n1Cc1cccc(-c2ccc(S(=O)(=O)NC#N)cc2C(F)(F)F)c1` [Example 26, Ethyl 2-butyl-5-methylsulfanyl-3-(4′-cyanoaminosulfonyl-2′-trifluoromethylbiphenyl-3-ylmethyl)-3H-imidazole-4-carboxylate]: the melting point is 122 °C (dec.). Further, in series [1], the “Residual activity in %” value turned out to be 65.3%.
With `N#CNS(=O)(=O)c1ccccc1-c1ccc(Cn2c(-c3ccc(Cl)cc3)nc(Cl)c2C=O)cc1` [Example 36, 4′-[4-Chloro-5-formyl-2-(4-chlorphenyl)-imidazole-1-ylmethyl]-biphenyl-2-sulfonylcyanamide], the melting point was in the range of 160 to 187 °C. In addition, the “Residual activity in %” value in series [1] amounted to 7.8%.
In the case of `COc1ccc(-c2nc(Cl)c(C=O)n2Cc2ccc(-c3ccccc3S(=O)(=O)NC#N)cc2)cc1` [Example 37, 4′-[4-Chloro-5-formyl-2-(4-methoxyphenyl)-imidazole-1-ylmethyl]-biphenyl-2-sulfonylcyanamide], the melting point was in the range of 110 to 126 °C. Further, the “Residual activity in %” value in series [1] stood at 16.8%.
`N#CNS(=O)(=O)c1ccccc1-c1ccc(Cn2c(-c3c(F)cccc3F)nc(Cl)c2C=O)cc1` [Example 38, 4′-[4-Chloro-5-formyl-2-(2,6-difluorphenyl)-imidazole-1-ylmethyl]-biphenyl-2-sulfonylcyanamide] gave a melting point of 164 to 178 °C. Further, in series [1], the “Residual activity in %” value was determined as 8.6%.
